{
  "source": "patent US20140155321A1",
  "about": "“Polypeptides and Their Use” (Novabiotics Limited, priority 2012, published 2014)",
  "key": {"[1]": {"system": "M. pachydermatis CBS6536", "experiment": "Antifungal efficacy in Head & Shoulders conditioner, surviving colony count", "assay_type": "cell-based, Malassezia pachydermatis", "conditions": "FIG. 6", "description": "(§1) In a further experiment, the effect of incubation time on killing of Malassezia spp. was investigated. The following materials were tested: • 1. 0.04% (w/v) Zinc Pyrithione in 19.2% (v/v) Head &Shoulders conditioner • 2. 1.0% (w/v) NP108 in 19.2% (v/v) Head & Shoulders conditioner • 3. 19.2% (v/v) Head & Shoulders conditioner\n(§2) All yeast inocula for this experiment were prepared to the 0.5 McFarland Standard. 400 d of yeast inoculum was exposed to 100 μl of the materials described above and incubated at 30° C. for 0, 3, 10, 30 or 60 min, followed by washing to remove all traces of the materials. Serial dilutions of the yeasts were prepared (10^0-10^−5; 10-fold dilutions) and 100 μl was spread on Modified Christensen's Medium and incubated at 30° C. for 48 h and numbers of surviving colonies counted. All experiments were carried out in triplicate.\nIn the following experiment, all samples of M. pachydermatis CBS6536 (0.5 McFarland Standard) were exposed to 10% (v/v) Head & Shoulders (H & S) Conditioner, containing 0 (0%), 1.0 (0.1%) or 10.0 (1.0%) mg/ml NP108. The positive control samples were exposed to 10% (v/v) Head & Shoulders Conditioner. The negative control samples were exposed to water alone."}, "[2]": {"system": "M. furfur DSMZ6170", "experiment": "Antifungal efficacy in conditioner vehicles, surviving colony count", "assay_type": "cell-based, Malassezia furfur", "conditions": "for killing of M. furfur: 60 min exposure", "description": "The antifungal efficacy of NP108 was tested in a conditioner vehicle. The following materials were tested: • 1. 10% (v/v) Head & Shoulders conditioner (anti-dandruff conditioner) • 2. 10% (v/v) Pantene conditioner (“normal” conditioner) • 3. 10% (v/v) Pantene conditioner (“normal” conditioner)+4% (w/v) NP 108 • 4. Phosphate Buffered Saline (PBS)\nas §2, with “400 μl” for “400 d”, “above for 1 h” for “above and incubated”, “at 37° C.,” for “at 30° C. for 0, 3, 10, 30 or 60 min,”\nas §1, §2\nIn the following experiment, all samples of M. furfur DSMZ6170 (0.5 McFarland Standard) were exposed to 10% (v/v) H & S Conditioner, containing 10.0 (1.0%) mg/ml NP108 or 0.4 mg/ml zinc pyrithione (the active ingredient in H & S shampoo). The control samples were exposed to 10% (v/v) H & S Conditioner. The negative control samples were exposed to water alone (data not shown).\nIn the following experiment, all samples of M. furfur DSMZ6170 (0.5 McFarland Standard) were exposed to 10% (v/v) H & S Conditioner or 10% (v/v) Pantene Conditioner and a further treatment of 40 mg/ml NP108 (4.0%) in 10% (v/v) Pantene Conditioner. The control sample was exposed to PBS alone. All incubations were carried out for 60 min."}, "[3]": {"system": "human red blood cells", "experiment": "Haematotoxicity (haemolysis) versus 10% human red blood cells", "assay_type": "cell-based", "description": "(§3) Haematotoxicity versus 10% human red blood cells and cyctotoxicity versus human dermal fibroblast (BJ) cells and human lung epithelial (A549) cells was determined by standard in vitro procedures known to those skilled in the art (Table 1 and FIG. 1)."}, "[4]": {"system": "M. pachydermatis NCPF3667", "experiment": "MIC by modified CLSI M27-A3 broth dilution versus M. pachydermatis NCPF3667", "assay_type": "cell-based, Malassezia pachydermatis", "conditions": "Table 2", "description": "(§4) The minimum inhibitory concentration (MIC) of all materials was determined according to methods described in the Clinical and laboratory Standards institute Approved Standard “Reference Method for Broth Dilution Antifungal Susceptibility Testing of Yeasts—Third Edition (M27-A3)” with the following modifications. In place of RPMI-1640 liquid medium, Modified Christensen's Medium, without the addition of agar, was used."}, "[5]": {"system": "Malassezia pachydermatis (CBS6536)", "conditions": "for positive skin cultures / approximate number of cfu from skin biopsies, Group ave.: 10 d post-infection, 5% (w/v) NP108 or 2% (w/v) miconazole topical; for approximate number of cfu from skin biopsies, Group ave.: 3 days incubation; for Group ave. Day+10 clinical score: topical once a day for 6 d from 48 h post-infection, 5% (w/v) NP108 or 2% (w/v) miconazole, score 3.0 = significant crusting/erythema", "description": "Determination of the Efficacy of NP108 Against Malassezia pachydermatis (CBS6536) in a Murine Model of Localised Dermatophyte Skin Infection (10 Days Post-Infection)\nIn this Malassezia spp. skin infection study, 30 male CD1 mice (10 per treatment group) were scored daily for 10 d post-infection based on the clinical observations of the infected area. Mice were treated with test article, 5% (w/v) NP108, 2% (w/v) miconazole or vehicle commencing 48 h post-infection for 6 d. Groups of 10 mice were euthanized for culture of skin tissue 10 d post-infection. Skin samples were dissected into 10 pieces per mouse and each piece streaked onto Modified Leeming Notman agar (MLNA) for culture at 30° C. for up to 7 d. Data from these samples has been recorded as number positive for Malassezia pachydermatis CBS6536 growth per mouse and approximate number of quantifiable cfu per streaked sample; plates were read after 3 d and 7 d incubation. Test article NP108 was supplied as a 5% (w/v) dosing preparation in 65% PEG14000, supplied ready to administer without any reconstitution or dilution required, as was vehicle preparation also."}, "[6]": {"system": "M. pachydermatis CBS6536", "experiment": "MIC by modified CLSI M27-A3 broth dilution versus M. pachydermatis CBS6536", "assay_type": "cell-based, Malassezia pachydermatis", "description": "as §4"}, "[7]": {"system": "M. furfur DSMZ6170", "experiment": "Antifungal efficacy in a shampoo vehicle, surviving colony count", "assay_type": "cell-based, Malassezia furfur", "conditions": "40 mg/ml NP108 in 10% (v/v) Pantene shampoo; 60 min exposure; FIG. 5", "description": "The antifungal efficacy of NP108 was tested in a shampoo vehicle. The following materials were tested: • 1. 10% (v/v) Head & Shoulders shampoo (anti-dandruff shampoo) • 2. 10% (v/v) Pantene shampoo (“normal” shampoo) • 3. 10% (v/v) Pantene shampoo (“normal” shampoo)+4% (w/v) NP108 • 4. Phosphate Buffered Saline (PBS)\nas §2, with “400 μl” for “400 d”, “above for 1 h” for “above and incubated”, “at 37° C.,” for “at 30° C. for 0, 3, 10, 30 or 60 min,”, “the yeast inocula” for “the yeasts”\nIn the following experiment, all samples of M. furfur DSMZ6170 (0.5 McFarland Standard) were exposed to 10% (v/v) Head & Shoulders (H & S) Shampoo, 10% (v/v) Pantene Shampoo and 10% (v/v) Pantene Shampoo containing 40.0 (4.0%) mg/ml NP108. The negative control samples were exposed to phosphate-buffered saline (PBS) alone. H & S Shampoo contains zinc pyrithione (˜1%) as an antifungal agent proven to kill Malassezia spp."}, "[8]": {"system": "M. furfur DSMZ6170", "experiment": "MIC by modified CLSI M27-A3 broth dilution versus M. furfur DSMZ6170", "assay_type": "cell-based, Malassezia furfur", "description": "as §4"}, "[9]": {"system": "human dermal fibroblast (BJ) cells", "experiment": "Cytotoxicity versus human dermal fibroblast (BJ) cells", "assay_type": "cell-based", "conditions": "BJ fibroblasts", "description": "as §3"}, "[10]": {"system": "M. furfur DSMZ6170", "conditions": "0.4 mg/ml zinc pyrithione, under in vitro conditions (not in conditioner)"}, "[11]": {"conditions": "Table 1, 1×10^6-5×10^6 cells/ml, Modified Christensen's Medium"}, "[12]": {"conditions": "Table 2, M. pachydermatis CBS6536"}},
  "note": "Like-named read-outs stand apart in the source and are kept apart here.",
  "data": [
    {"molecule": "Poly-L-Lysine [NP108]", "values": [
      {"measurement": "antifungal activity", "setting": "[1]; 1 mg/ml NP108 (0.1%) in H & S conditioner", "result": "no antifungal activity"},
      {"measurement": "killing of M. pachydermatis", "setting": "[1]; 10 mg/ml NP108 (1.0%) in H & S conditioner, after as little as 3 min exposure", "result": "kills"},
      {"measurement": "killing of M. furfur", "setting": "[2]; 10 mg/ml NP108 (1.0%) in H & S conditioner, FIG. 7", "result": "Complete killing"},
      {"measurement": "antifungal activity", "setting": "[2]; 10 mg/ml NP108 (1.0%) in H & S conditioner, after as little as 3 min exposure, time-dependent increase, FIG. 7", "result": "demonstrates antifungal activity"},
      {"measurement": "killing of M. furfur", "setting": "[2]; 40 mg/ml NP108 (4.0%) in 10% (v/v) Pantene conditioner, FIG. 8", "result": "completely killing"},
      {"measurement": "Haemolysis (LD50)", "setting": "[3]", "result": ">10,000 μg/ml"},
      {"measurement": "MIC50 Median", "setting": "[4]", "result": 15.6, "unit": "µg/mL"},
      {"measurement": "MIC80 Median", "setting": "[4]", "result": "15.6 to 31.3", "unit": "µg/mL"},
      {"measurement": "MIC100 Median", "setting": "[4]", "result": 31.3, "unit": "µg/mL"},
      {"measurement": "tolerability of treatment", "setting": "[5]; 5% (w/v) NP108 in 65% PEG14000, topical, throughout the study", "result": "well tolerated"},
      {"measurement": "positive skin cultures", "setting": "[5]", "result": 84, "unit": "%"},
      {"measurement": "approximate number of cfu from skin biopsies, Group ave.", "setting": "[5]", "result": 34.6, "unit": "cfu/mouse"},
      {"measurement": "Group ave. Day+10 clinical score", "setting": "[5]", "result": 0.65},
      {"measurement": "MIC50", "setting": "[6]; [11]", "result": "62.5 to 125", "unit": "µg/mL"},
      {"measurement": "MIC80", "setting": "[6]; [11]", "result": "62.5 to 125", "unit": "µg/mL"},
      {"measurement": "MIC100", "setting": "[6]; [11]", "result": 125, "unit": "µg/mL"},
      {"measurement": "MIC50 Median", "setting": "[6]; [12]", "result": 31.25, "unit": "µg/mL"},
      {"measurement": "MIC80 Median", "setting": "[6]; [12]", "result": 62.5, "unit": "µg/mL"},
      {"measurement": "MIC80 Range", "setting": "[6]; [12]", "result": "31.25 to 125", "unit": "µg/mL"},
      {"measurement": "MIC100 Median", "setting": "[6]; [12]", "result": 62.5, "unit": "µg/mL"},
      {"measurement": "MIC100 Range", "setting": "[6]; [12]", "result": "31.25 to 125", "unit": "µg/mL"},
      {"measurement": "MIC50 Range", "setting": "[6]; Table 2, M. pachydermatis CBS6536, three independent experiments", "result": "15.63 to 31.25", "unit": "µg/mL"},
      {"measurement": "killing of M. furfur (surviving cfu/ml)", "setting": "[7]", "result": "kills"},
      {"measurement": "MIC50 Median", "setting": "[8]; Table 2", "result": 250, "unit": "µg/mL"},
      {"measurement": "MIC80 Median", "setting": "[8]; Table 2", "result": 1000, "unit": "µg/mL"},
      {"measurement": "MIC80 Range", "setting": "[8]; Table 2", "result": "500 to 2000", "unit": "µg/mL"},
      {"measurement": "MIC100 Median", "setting": "[8]; Table 2", "result": 2000, "unit": "µg/mL"},
      {"measurement": "MIC100 Range", "setting": "[8]; Table 2", "result": "2000 to 4000", "unit": "µg/mL"},
      {"measurement": "MIC50 Range", "setting": "[8]; Table 2, three independent experiments", "result": "125 to 500", "unit": "µg/mL"},
      {"measurement": "Cytotoxicity (BJ; LD50)", "setting": "[9]", "result": "4,500 μg/ml"}
    ]},
    {"molecule": "zinc pyrithione [reference compound]", "values": [
      {"measurement": "antifungal activity", "setting": "[2]; 0.4 mg/ml zinc pyrithione in H & S conditioner, FIG. 7", "result": "no antifungal activity"},
      {"measurement": "killing of M. furfur", "setting": "[10]", "result": "sufficient to kill"}
    ]},
    {"molecule": "Clc1ccc(COC(Cn2ccnc2)c2ccc(Cl)cc2Cl)c(Cl)c1", "note": "(centres unmarked) [miconazole, reference compound]", "values": [
      {"measurement": "positive skin cultures", "setting": "[5]", "result": 100, "unit": "%"},
      {"measurement": "approximate number of cfu from skin biopsies, Group ave.", "setting": "[5]", "result": 131.4, "unit": "cfu/mouse"},
      {"measurement": "Group ave. Day+10 clinical score", "setting": "[5]", "result": 1.31}
    ]}
  ]
}
